US10730892B2, “Homoallylamines as formaldehyde-responsive triggers” (The Regents of the University of California, priority 2015, dated 2020)
Like-named read-outs stand apart in the source and are kept apart here.

Columns and labels:
[1] = tested on: Neuroscreen-1 (NS1) cells
Protocol: FIG. 12 depicts live-cell imaging of NS1 cells. […] Cells were irradiated with the 633 nm HeNe laser set at 3% power with a pinhole size of 1 airy unit. The emission was collected between 645 and 800 nm. Scale bar represents 20 μm. Pseudo-coloring represents intensity distribution from highest intensity indicated by white to the lowest intensity designated by black.
FIG. 13 depicts quantification of observed fluorescence intensity by confocal imaging in NS1 cells after incubation with 1 mM, 2.5 mM or 5 mM FA for 1 (light grey bars), 2 (dark grey bars) and 3 h (black bars). A Ham's F-12K vehicle was added to control cells which was normalized to 1 (white bars). […] For each condition, a minimum of 5 images were averaged (n>5). Errors represent standard deviation.
FIG. 20 depicts quantification of data obtained from confocal microscopy images acquired by irradiation of NS1 cells treated with a vehicle control, 0.25 mM and 0.5 mM FA at 37° C. for 3 hrs with the 633 nm HeNe laser. […] For each condition, a minimum of 5 images were averaged (n>5). Errors represent standard deviation.
(§1) HEK293TN cells were obtained from Prof. Paul Hergenrother (UIUC, Chemistry) and cultured in phenol-red free Dulbecco's modified eagle medium (DMEM, Corning) supplemented with 10% fetal bovine serum (FBS, Sigma Aldrich), and 1% penicillin/streptomycin (Corning). Neuroscreen-1 cells were obtained from Prof. Kai Zhang (UIUC, Biochemistry) and cultured in Ham's F-12K medium (Sigma Aldrich) supplemented with 15% horse serum (Hyclone), 2.5% fetal bovine serum (FBS, Sigma Aldrich), and 1% penicillin/streptomycin (Corning). Cells were incubated at 37° C. and 5% CO2. One day before imaging, cells were passed and plated on 8-well chambered coverglasses (Lab-Tek) at a density of 40,000 cells per mL (or 20,000 cells per well). Cells would reach 70-80% confluency before imaging. […] Samples of HEK293TN and NS1 cells for flow cytometry were prepared by passaging and seeding each well of a 6-well cluster culture dish (Cyto-One) with 300,000 cells one day before experiments. […] Stained cells were aspirated and serum-free DMEM added. Subsequently, a 10× concentrated FA solution was added to give a final concentration of 1.0 mM. 2.5 mM and 5 mM. After incubation cells with FA, the media was removed and replaced with serum-free DMEM. Finally, cells were trypsinized, pelleted via centrifugation, resuspended in phosphate-buffered saline (PBS) for flow cytometric analysis.
Prior to imaging, cells were allowed to recover in FA-free buffer for 30 min. […] Because FA is a powerful fixative, cell viability assays were performed to determine the cytotoxicity of FA under experimental conditions. A dye exclusion protocol was employed, utilizing trypan blue to selectively stain and distinguish dead cells from those that were viable. […] To further verify that the cell populations under investigation were indeed alive, DAPI, a cell permeable nuclear and chromosome counterstain, was employed to identify intact nuclei (FIG. 16).
(§2) For example, semicarbazide-sensitive amine oxidase (SSAO) is primarily localized to the plasma membrane (Andres et al., J. Histochem. Cytochem. 2001, 49:209). Thus, both HEK293TN and NS1 cells were costained with ER-Tracker Green, LysoTracker Green DND-26, and MitoTracker Green FM, fluorescent indicators that are known to selectively stain the endoplasmic reticulum, lysosome, and mitochondria, respectively in almost all cell types (FIG. 17A and FIG. 17B).

[2] = tested on: HEK293TN cells; settings: 5 mM FA, 37° C., 3 hrs
Protocol: (§3) Nuclear magnetic resonance (NMR) spectra were recorded on Varian 400 or 500 MHz spectrometers at 25° C. Chemical shifts are reported in ppm (δ) and are referenced to residual protic peaks. The following abbreviations are used to describe coupling constants: singlet (s), doublet (d), triplet (t), quartet (q), doublet doublet (dd), doublet triplet (dt), doublet quartet (dq), doublet doublet triplet (ddt), multiplet (m), and broad singlet (bs). IR spectra were recorded with a PerkinElmer Spectrum Two infrared (IR) spectrometer. High-resolution mass spectra were acquired with a Waters Q-TOF Ultima ESI mass spectrometer and a Waters Synapt G2-Si ESI/LC-MS mass spectrometer. UV-visible spectra were recorded on a Cary 60 spectrometer. Fluorescence spectra were acquired on a QuantaMaster-400 scanning spectrofluorometer with micro fluorescence quartz cuvettes (Science Outlet). Flow cytometry was performed on a BD Biosciences LSR II (San Jose, Calif., USA), and the data were analyzed as described using FACSDiva software.
as §1

[3] = tested on: NS1 cells; settings: 37° C., 3 hrs
Protocol: as §3, §1

[4] = tested on: HEK293TN and NS1 cells; settings: 1 μM FP1 for 8 min, imaged after 30 min and after 8 hrs
Text: as §2

[5] = tested on: HEK293TN cells; settings: 100 scans at 25% laser power, pinhole 1 airy unit
Text: as §2

[6] = Fluorescence properties of compounds 3, 4, 5 and FP1 (Table 1); assay type: physicochemical
Text: Such red-shifted fluorophores are desirable because of low autofluorescence, minimal phototoxicity, and negligible interference from biomolecules when employed in live cell imaging. […] In the presence of FA, a reversible condensation event yielded an iminium intermediate which can undergo a charge-promoted [3,3]-sigmatropic rearrangement-hydrolysis sequence to expel the aryl nitro group and afford a highly fluorescent indole-3-carboxaldehyde product (ΦF=0.11) (Table 1). Of note, the aldehyde is strategically positioned at C3 such that after the reaction cascade, the N1 lone pair electrons can delocalize into the π-system rather than quench fluorescence via an acceptor-excited PeT (a-PeT) pathway. In this regard, silicon rhodol 3, without the carboxaldehyde, is non-fluorescent (Table 1).

[7] = Protocol: Time points on graph are 0, 30, 60, 90, 120, 150, and 180 min. […] Bars represent normalized fold-changes in response to treatment with each analyte listed at 1 mM for 3 hrs.
In addition to its ability to crosslink biomolecules, FA is cytotoxic through the induction of oxidative stress (Zararsiz et al., Cell Biochem. Fund. 2007, 25:413).

Structure (SMILES): C=CCC(NCc1ccc([N+](=O)[O-])cc1)c1cn(C)c2cc(C)c(C3=C4C=CC(=O)C=C4[Si](C)(C)c4c3cc3c5c4CCCN5CCC3)cc12 (stereo not shown) [FP1]
- fold fluorescence increase (time-lapse imaging) ([1]; NS1, 1 μM FP1, on-stage addition of 1 mM FA at 25° C., 2 hrs): 1.3 fold
- fold increase in fluorescence intensity (confocal) ([1]; NS1, 2 μM FP1, 1 mM FA, 1 hr): 0 fold
- fold increase in fluorescence intensity (confocal) ([1]; NS1, 2 μM FP1, 1 mM FA, 2 hrs): 1.1 fold
- fold increase in fluorescence intensity (confocal) ([1]; NS1, 2 μM FP1, 1 mM FA, 3 hrs): 1.6 fold
- fold increase in fluorescence intensity (confocal) ([1]; NS1, 2 μM FP1, 2.5 mM FA, 1 hr): 1.3 fold
- fold increase in fluorescence intensity (confocal) ([1]; NS1, 2 μM FP1, 2.5 mM FA, 2 hrs): 1.5 fold
- fold increase in fluorescence intensity (confocal) ([1]; NS1, 2 μM FP1, 2.5 mM FA, 3 hrs): 2.0 fold
- fold increase in fluorescence intensity (confocal) ([1]; NS1, 2 μM FP1, 5 mM FA, 1 hr): 1.8 fold
- fold increase in fluorescence intensity (confocal) ([1]; NS1, 2 μM FP1, 5 mM FA, 2 hrs): 2.0 fold
- fluorescence increase (confocal) ([1]; NS1, 0.25 mM FA, 37° C., 3 hrs): 16%
- signal enhancement (confocal) ([1]; NS1, 0.5 mM FA, 37° C., 3 hrs): 38%
- fold turn-on, median APC-A fluorescence intensity (flow cytometry) [2]: ~2.5 fold
- fluorescence turn-on (flow cytometry) ([3]; NS1, 0.25 mM FA): 42%
- fluorescence turn-on (flow cytometry) ([3]; NS1, 0.5 mM FA): 50%
- fold increase by flow cytometry ([3]; NS1, 5 mM FA): 4.2 fold
- dye efflux: change in fluorescence [4]: no statistically significant decrease in fluorescence
- photostability toward repeated irradiation [5]: no decrease in fluorescence
- Φ (quantum efficiency, ΦF) [6]: undetectable levels
- ε [6]: 29000 M⁻¹ cm⁻¹
- λabs [6]: 620 nm
- λem [6]: 649 nm
- fold fluorescence increase ([7]; 1 μM FP1, 1 mM acetaldehyde, 3 hrs): 1.9 fold
- cross-reactivity with aldehyde containing species ([7]; 1 μM FP1, 1 mM of the various analytes): only minimal cross-reactivity
- change in fluorescence ([7]; 1 mM hydrogen peroxide): no significant change in fluorescence
- chemical stability in the presence of intracellular reductants ([7]; cysteine, glutathione, hydrogen sulfide, 1 mM, 3 hrs): no aberrant reactivity
